Source: US9254291B2, “Modulators of ATP-binding cassette transporters” (VERTEX PHARMACEUTICALS INCORPORATED, priority 2011, dated 2016)

Molecular target: T1, ΔF508-CFTR (Homo sapiens, UniProt P13569, DEL508-508)
T1 construct: expressed in transfected cells
Assay: Membrane potential optical assay for ΔF508-CFTR correction properties of compounds
Format: cell-based
Settings: ΔF508-CFTR in NIH3T3 mouse fibroblasts; test behind Table 2 not named
Excerpt: Assays for Detecting and Measuring ΔF508-CFTR Correction Properties of Compounds
Membrane potential optical methods for assaying ΔF508-CFTR modulation properties of compounds.
The assay utilizes fluorescent voltage sensing dyes to measure changes in membrane potential using a fluorescent plate reader (e.g., FLIPR III, Molecular Devices, Inc.) as a readout for increase in functional ΔF508-CFTR in NIH 3T3 cells. The driving force for the response is the creation of a chloride ion gradient in conjunction with channel activation by a single liquid addition step after the cells have previously been treated with compounds and subsequently loaded with a voltage sensing dye.
Identification of Correction Compounds
To identify small molecules that correct the trafficking defect associated with ΔF508-CFTR; a single-addition HTS assay format was developed. […] Cells are then ready for compound exposure after adhering to the bottom of the assay plates.
The cells were incubated in serum-free medium for 16-24 hrs in tissue culture incubator at 37° C., 5% CO2, 90% humidity in the presence or absence (negative control) of test compound. […] The addition of Cl^−-free medium promoted Cl^− efflux in response to ΔF508-CFTR activation and the resulting membrane depolarization was optically monitored using voltage sensor dyes. […]

T1 sequence (P13569 with tags, fused parts or gaps DEL508-508): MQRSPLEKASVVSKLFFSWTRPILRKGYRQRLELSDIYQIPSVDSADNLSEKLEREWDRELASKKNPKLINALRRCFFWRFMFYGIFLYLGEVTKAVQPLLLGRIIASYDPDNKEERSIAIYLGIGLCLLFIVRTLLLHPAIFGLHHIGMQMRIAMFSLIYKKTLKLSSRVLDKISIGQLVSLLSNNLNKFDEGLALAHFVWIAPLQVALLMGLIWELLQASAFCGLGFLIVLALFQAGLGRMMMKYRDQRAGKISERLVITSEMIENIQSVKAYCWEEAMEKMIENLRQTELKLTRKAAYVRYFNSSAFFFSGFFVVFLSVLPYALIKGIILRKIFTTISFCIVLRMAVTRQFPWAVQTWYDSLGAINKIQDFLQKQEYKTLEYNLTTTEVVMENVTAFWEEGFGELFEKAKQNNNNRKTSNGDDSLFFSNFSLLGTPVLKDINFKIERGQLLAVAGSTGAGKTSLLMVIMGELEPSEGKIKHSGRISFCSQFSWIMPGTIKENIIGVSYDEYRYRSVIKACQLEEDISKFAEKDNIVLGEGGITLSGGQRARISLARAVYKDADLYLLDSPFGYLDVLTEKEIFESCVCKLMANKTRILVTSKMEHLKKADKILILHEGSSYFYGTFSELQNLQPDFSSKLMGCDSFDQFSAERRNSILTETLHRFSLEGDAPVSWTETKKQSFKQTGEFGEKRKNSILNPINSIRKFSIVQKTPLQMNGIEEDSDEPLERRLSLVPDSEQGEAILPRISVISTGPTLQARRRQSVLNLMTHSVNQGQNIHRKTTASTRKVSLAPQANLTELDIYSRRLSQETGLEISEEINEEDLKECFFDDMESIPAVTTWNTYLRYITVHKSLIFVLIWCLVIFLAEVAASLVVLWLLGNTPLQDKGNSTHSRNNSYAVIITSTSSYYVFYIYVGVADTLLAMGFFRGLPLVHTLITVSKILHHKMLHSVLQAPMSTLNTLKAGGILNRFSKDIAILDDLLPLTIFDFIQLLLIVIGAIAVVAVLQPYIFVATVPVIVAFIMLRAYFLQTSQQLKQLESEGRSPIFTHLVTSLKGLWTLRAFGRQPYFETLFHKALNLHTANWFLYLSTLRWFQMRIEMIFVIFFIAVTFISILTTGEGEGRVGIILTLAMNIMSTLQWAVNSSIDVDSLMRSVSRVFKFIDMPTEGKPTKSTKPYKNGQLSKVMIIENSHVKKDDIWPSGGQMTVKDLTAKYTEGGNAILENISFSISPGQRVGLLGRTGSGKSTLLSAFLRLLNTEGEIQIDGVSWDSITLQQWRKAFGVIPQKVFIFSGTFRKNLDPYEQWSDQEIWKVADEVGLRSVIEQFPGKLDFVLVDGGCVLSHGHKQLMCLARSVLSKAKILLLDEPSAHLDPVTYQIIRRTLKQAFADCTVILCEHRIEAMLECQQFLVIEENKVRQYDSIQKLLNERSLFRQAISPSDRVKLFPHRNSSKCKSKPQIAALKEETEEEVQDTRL

EC50: < 2000 nM
Structure (SMILES): CC1(C)c2cc3cc(NC(=O)C4(c5ccc6c(c5)OC(F)(F)O6)CC4)c(F)cc3n2C[C@H](CO)OC1O (stereo partly drawn) [1-(2,2-difluorobenzo[d][1,3]dioxol-5-yl)-N-((4R)-8-fluoro-2-hydroxy-4-(hydroxymethyl)-1,1-dimethyl-1,2,4,5-tetrahydro-[1,4]oxazepino[4,5-a]indol-9-yl)cyclopropanecarboxamide]
